Source: publication PMC7611149 (ACS chemical biology, 2018)

Tests used:
[1] = target: CpOGA (Clostridium perfringens, UniProt Q0TR53); experiment: biochemical; assay type: binding
[2] = target: T1, human OGA (hOGA) (Homo sapiens, UniProt O60502); experiment: Fluorescence polarization displacement of GlcNAcstatin BF from hOGA; assay type: binding; conditions: FP displacement, 50 nM GlcNAcstatin BF, 250 nM hOGA, TBS pH 7.5
T1 sequence (O60502 60-336 limits assumed): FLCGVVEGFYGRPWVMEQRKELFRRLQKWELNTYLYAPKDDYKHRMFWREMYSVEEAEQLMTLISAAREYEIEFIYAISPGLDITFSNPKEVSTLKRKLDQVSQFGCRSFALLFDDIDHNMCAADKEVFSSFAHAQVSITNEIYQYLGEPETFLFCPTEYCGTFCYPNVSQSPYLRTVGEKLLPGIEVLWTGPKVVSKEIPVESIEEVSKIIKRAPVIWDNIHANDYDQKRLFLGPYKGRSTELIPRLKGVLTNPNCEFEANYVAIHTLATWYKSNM

Sequence of CpOGA (Q0TR53 31-1001 limits assumed): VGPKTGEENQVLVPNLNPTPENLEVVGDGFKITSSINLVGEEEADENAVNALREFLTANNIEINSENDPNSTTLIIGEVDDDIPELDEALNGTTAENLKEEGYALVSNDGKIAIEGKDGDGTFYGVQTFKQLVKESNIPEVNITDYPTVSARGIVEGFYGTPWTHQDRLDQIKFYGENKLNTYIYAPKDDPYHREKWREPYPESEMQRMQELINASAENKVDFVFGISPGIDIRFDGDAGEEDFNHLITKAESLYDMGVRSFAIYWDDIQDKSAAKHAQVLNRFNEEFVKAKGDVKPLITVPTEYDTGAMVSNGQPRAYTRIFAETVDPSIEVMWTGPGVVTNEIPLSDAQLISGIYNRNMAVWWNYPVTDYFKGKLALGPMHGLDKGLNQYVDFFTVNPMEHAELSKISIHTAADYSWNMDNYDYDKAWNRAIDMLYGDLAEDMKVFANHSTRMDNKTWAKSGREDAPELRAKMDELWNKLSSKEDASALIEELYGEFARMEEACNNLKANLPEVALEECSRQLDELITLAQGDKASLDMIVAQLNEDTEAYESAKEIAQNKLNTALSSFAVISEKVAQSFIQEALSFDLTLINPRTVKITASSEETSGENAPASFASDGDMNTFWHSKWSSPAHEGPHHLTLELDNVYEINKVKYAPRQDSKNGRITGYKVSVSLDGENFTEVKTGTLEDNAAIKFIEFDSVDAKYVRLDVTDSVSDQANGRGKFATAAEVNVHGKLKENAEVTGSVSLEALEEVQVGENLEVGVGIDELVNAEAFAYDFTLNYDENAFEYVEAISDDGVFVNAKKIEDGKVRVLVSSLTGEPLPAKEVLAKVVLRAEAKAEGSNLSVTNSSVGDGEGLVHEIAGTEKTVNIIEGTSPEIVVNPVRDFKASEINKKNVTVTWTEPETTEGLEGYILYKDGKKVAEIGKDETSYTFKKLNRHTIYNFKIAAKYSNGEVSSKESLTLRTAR

Compound | Ki [1] [µM] | Ki [2] [µM]
FC(F)(F)C1=NCCNC=C1 [5TFD, 5-(trifluoromethyl)-2,3-dihydro-1H-1,4-diazepine] | 146 | 
CC(=O)N[C@H]1c2nc(CCc3ccccc3)cn2[C@H](CO)[C@@H](O)[C@@H]1O [GlcNAcstatin B] |  | 0.0232
